Laboratory results taken from US20250136606A1, “MODULATORS OF TRPML, THEIR COMPOSITIONS AND METHODS OF USE” (Caraway Therapeutics, Inc., priority 2021, published 2025).

How the values were obtained:
Format in all cases: cell-based
TRPML3 = molecular target: T1, TRPML3 (Homo sapiens, UniProt Q8TDD5); assay: Fluorescent TRPML3 assay (performed as for TRPML1, substituting the TRPML3 subtype)
T1 construct: expressed in transfected cells
T1 sequence (Q8TDD5 1-553): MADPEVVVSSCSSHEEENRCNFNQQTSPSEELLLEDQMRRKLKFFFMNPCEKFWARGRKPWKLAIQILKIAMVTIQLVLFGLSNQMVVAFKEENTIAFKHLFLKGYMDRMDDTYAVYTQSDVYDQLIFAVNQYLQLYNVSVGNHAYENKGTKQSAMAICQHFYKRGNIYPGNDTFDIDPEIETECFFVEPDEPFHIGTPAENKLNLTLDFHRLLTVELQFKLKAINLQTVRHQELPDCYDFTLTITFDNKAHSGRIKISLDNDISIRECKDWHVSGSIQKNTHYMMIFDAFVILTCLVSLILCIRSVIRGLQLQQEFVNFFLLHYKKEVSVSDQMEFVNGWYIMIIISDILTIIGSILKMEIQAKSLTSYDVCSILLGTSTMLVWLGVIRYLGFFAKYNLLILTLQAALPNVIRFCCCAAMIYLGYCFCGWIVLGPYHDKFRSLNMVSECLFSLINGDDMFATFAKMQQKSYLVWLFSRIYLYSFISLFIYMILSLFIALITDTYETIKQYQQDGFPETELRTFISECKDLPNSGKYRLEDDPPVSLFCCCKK
Summary of the method: (§1)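 HEK-293 Trex cells with doxycycline-induced (0.5 ug/mL) surface-directed human TRPML subtype, loaded with 1 μM Fluo4-AM, resuspended in Ringer's with 10 mM calcium. Compounds at 20 μM to 6 nM final in half-log steps, triplicate; fluorescence ex 480/em 540; EC50 by non-linear regression versus plate controls.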

TRPML1 = TRPML1 (Homo sapiens, UniProt Q9GZU1); assay: Fluorescent TRPML1 assay (Fluo4-AM calcium fluorescence in doxycycline-induced HEK-293 Trex cells)
Summary of the method: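 HEK-293 Trex cells stably carrying human TRPML1 (surface-trafficking mutant) were induced overnight with 0.5 ug/mL doxycycline, loaded with 1 micromolar Fluo4-AM, and suspended in Ringer's with 10 mM calcium. Compounds at 20 micromolar to 6 nanomolar final, half-log steps, triplicate; fluorescence 480/540 nm gave percent activity versus controls and EC50 by non-linear regression.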

TRPML2 = molecular target: T2, TRPML2 (Homo sapiens, UniProt Q8IZK6); assay: Fluorescent TRPML2 assay (performed as for TRPML1, substituting the TRPML2 subtype)
T2 construct: expressed in transfected cells
T2 sequence (Q8IZK6 1-566): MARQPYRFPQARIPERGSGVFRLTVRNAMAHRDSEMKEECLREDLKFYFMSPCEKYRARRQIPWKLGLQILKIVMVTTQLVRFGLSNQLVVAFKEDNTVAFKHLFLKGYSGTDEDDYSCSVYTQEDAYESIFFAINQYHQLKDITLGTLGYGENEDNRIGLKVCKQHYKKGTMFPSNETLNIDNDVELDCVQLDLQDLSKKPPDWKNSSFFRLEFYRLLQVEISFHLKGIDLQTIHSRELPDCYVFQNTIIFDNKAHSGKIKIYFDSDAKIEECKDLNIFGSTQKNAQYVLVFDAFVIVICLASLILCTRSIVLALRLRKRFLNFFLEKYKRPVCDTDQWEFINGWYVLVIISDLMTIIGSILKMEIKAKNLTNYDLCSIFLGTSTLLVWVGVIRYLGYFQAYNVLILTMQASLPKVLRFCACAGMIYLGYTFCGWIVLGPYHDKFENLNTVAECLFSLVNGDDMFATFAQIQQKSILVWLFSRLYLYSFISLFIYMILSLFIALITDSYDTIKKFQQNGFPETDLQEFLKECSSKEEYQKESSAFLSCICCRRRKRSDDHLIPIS
Summary of the method: as §1

Chain of TRPML1 (Q9GZU1 whole entry L15A/L16A/L577A/L578A, form open): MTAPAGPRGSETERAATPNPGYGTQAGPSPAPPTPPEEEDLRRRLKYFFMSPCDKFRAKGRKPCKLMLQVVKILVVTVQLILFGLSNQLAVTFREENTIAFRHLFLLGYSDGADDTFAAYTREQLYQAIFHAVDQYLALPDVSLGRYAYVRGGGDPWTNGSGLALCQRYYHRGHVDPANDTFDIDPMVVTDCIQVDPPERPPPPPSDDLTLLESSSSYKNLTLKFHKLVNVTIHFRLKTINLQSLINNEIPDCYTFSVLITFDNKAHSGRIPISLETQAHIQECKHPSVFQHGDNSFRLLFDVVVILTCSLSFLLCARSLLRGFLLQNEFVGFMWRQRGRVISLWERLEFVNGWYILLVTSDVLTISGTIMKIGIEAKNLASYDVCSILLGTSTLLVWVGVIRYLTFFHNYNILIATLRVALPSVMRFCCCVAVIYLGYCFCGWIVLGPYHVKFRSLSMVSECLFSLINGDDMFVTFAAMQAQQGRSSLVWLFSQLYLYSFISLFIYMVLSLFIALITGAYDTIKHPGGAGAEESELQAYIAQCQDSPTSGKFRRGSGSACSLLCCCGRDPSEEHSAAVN

Row | Structure (SMILES) | EC50 (TRPML3) [nM] | EC50 (TRPML1) [nM] | EC50 (TRPML2) [nM]
1 | C[C@@H]1CN(c2ncnc3c2c(C2CCC2)cn3-c2cccc(F)c2)[C@@H](C)CN1C(=O)OC(C)(C)C [Compound 646, tert-butyl (2R,5S)-4-(5-cyclobutyl-7-(3-fluorophenyl)-7H-pyrrolo[2,3-d]pyrimidin-4-yl)-2,5-dimethylpiperazine-1-carboxylate] | 100 to 500 | 500 to 2000 | > 2000
2 | C[C@@H]1CN(c2ncnc3c2c(C2CCC2)cn3-c2cccc(Cl)c2)[C@@H](C)CN1C(=O)OC(C)(C)C [Compound 647, tert-butyl (2R,5S)-4-(7-(3-chlorophenyl)-5-cyclobutyl-7H-pyrrolo[2,3-d]pyrimidin-4-yl)-2,5-dimethylpiperazine-1-carboxylate] | 500 to 2000 | 100 to 500 | 500 to 2000
3 | C[C@@H]1CN(c2ncnc3c2c(C2CCC2)cn3-c2cc(F)cc(F)c2)[C@@H](C)CN1C(=O)OC(C)(C)C [Compound 648, tert-butyl (2R,5S)-4-(5-cyclobutyl-7-(3,5-difluorophenyl)-7H-pyrrolo[2,3-d]pyrimidin-4-yl)-2,5-dimethylpiperazine-1-carboxylate] | 100 to 500 | 500 to 2000 | 500 to 2000
4 | C[C@@H]1CN(c2ncnc3c2c(C2CC2)cn3-c2cccc(Cl)c2)[C@@H](C)CN1C(=O)OC1(C)CC1 [Compound 654, 1-methylcyclopropyl (2R,5S)-4-(7-(3-chlorophenyl)-5-cyclopropyl-7H-pyrrolo[2,3-d]pyrimidin-4-yl)-2,5-dimethylpiperazine-1-carboxylate] | < 100 | 100 to 500 | > 2000

Now from value to compound:

Row | EC50 (TRPML3) [nM] | EC50 (TRPML1) [nM] | EC50 (TRPML2) [nM] | Structure (SMILES)
5 | < 100 | < 100 | < 100 | C[C@@H]1CN(c2ncnc3c2c(-c2ccccc2F)cn3-c2cc(C(F)(F)F)ccn2)[C@@H](C)CN1C(=O)OC(C)(C)C [Compound 649, tert-butyl (2R,5S)-4-(5-(2-fluorophenyl)-7-(4-(trifluoromethyl)pyridin-2-yl)-7H-pyrrolo[2,3-d]pyrimidin-4-yl)-2,5-dimethylpiperazine-1-carboxylate]
6 | < 100 | < 100 | < 100 | C[C@@H]1CN(c2ncnc3c2c(-c2ccccc2F)cn3-c2cncc(C#N)c2)[C@@H](C)CN1C(=O)OC(C)(C)C [Compound 650, tert-butyl (2R,5S)-4-(7-(5-cyanopyridin-3-yl)-5-(2-fluorophenyl)-7H-pyrrolo[2,3-d]pyrimidin-4-yl)-2,5-dimethylpiperazine-1-carboxylate]
7 | < 100 | < 100 | < 100 | C[C@H]1CN(C(=O)OC(C)(C)C)CCN1c1ncnc2c1c(-c1ccccc1F)cn2-c1cc(C(F)(F)F)ccn1 [Compound 651, tert-butyl (S)-4-(5-(2-fluorophenyl)-7-(4-(trifluoromethyl)pyridin-2-yl)-7H-pyrrolo[2,3-d]pyrimidin-4-yl)-3-methylpiperazine-1-carboxylate]
8 | < 100 | < 100 | 100 to 500 | C[C@@H]1CN(c2ncnc3c2c(-c2ccccc2F)cn3-c2cc(C(F)(F)F)ccn2)[C@@H](C)CN1C(=O)OC1(C)CC1 [Compound 652, 1-methylcyclopropyl (2R,5S)-4-(5-(2-fluorophenyl)-7-(4-(trifluoromethyl)pyridin-2-yl)-7H-pyrrolo[2,3-d]pyrimidin-4-yl)-2,5-dimethylpiperazine-1-carboxylate]
9 | < 100 | < 100 | < 100 | C[C@@H]1CN(c2ncnc3c2c(-c2ccccc2F)cn3-c2cc(F)ccn2)[C@@H](C)CN1C(=O)OC1(C)CC1 [Compound 653, 1-methylcyclopropyl (2R,5S)-4-(5-(2-fluorophenyl)-7-(4-fluoropyridin-2-yl)-7H-pyrrolo[2,3-d]pyrimidin-4-yl)-2,5-dimethylpiperazine-1-carboxylate]
